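All cell lines were grown in 96-well plates and treated with compound for 48 hours. Abbreviation: GI50, concentration required for 50% inhibition of growth.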 Active and inactive are the calls of the source. Rule as the data show it: active = GI50 up to about 1.1 µM and inactive = higher.
Key:
Test in all cases: DTP human tumour cell line panel, 48 h
[1] = test system: K562
[2] = test system: MDA-MB-231
[3] = test system: MDA-MB-435
[4] = test system: SF-539
[5] = test system: PC-3
[6] = test system: HCC 2998
[7] = test system: Hs-578T
[8] = test system: HCT-116
[9] = test system: TK-10
[10] = test system: DU-145
[11] = test system: SK-MEL-2
[12] = test system: U-251
[13] = test system: UO-31
[14] = test system: OVCAR-3
[15] = test system: OVCAR-5
[16] = test system: OVCAR-8
[17] = test system: RPMI-8226
[18] = test system: A549
[19] = test system: M14
[20] = test system: SR
[21] = test system: T47D
[22] = test system: UACC-62
[23] = test system: SNB-19
[24] = test system: SN12C
[25] = test system: CCRF-CEM
[26] = test system: SW-620
[27] = test system: HOP-92
[28] = test system: EKVX
[29] = test system: MDA-N
[30] = test system: HCT-15
[31] = test system: COLO 205
[32] = test system: NCI-H226
[33] = test system: SF-295
[34] = test system: Malme-3M
[35] = test system: ACHN
[36] = test system: NCI/ADR-RES
[37] = test system: BT-549
[38] = test system: MOLT-4
[39] = test system: 786-0
[40] = test system: HOP-62
[41] = test system: SK-OV-3
[42] = test system: SF-268
[43] = test system: HT-29
[44] = test system: A498
[45] = test system: NCI-H460
[46] = test system: HL-60
[47] = test system: SNB-75
[48] = test system: MCF7
[49] = test system: IGROV-1
[50] = test system: RXF 393
[51] = test system: UACC-257
[52] = test system: CAKI-1
[53] = test system: SK-MEL-28
[54] = test system: SK-MEL-5
[55] = test system: KM12
[56] = test system: OVCAR-4
[57] = test system: NCI-H522
[58] = test system: NCI-H23
[59] = test system: LOX IMVI

SMILES: CC(C)(C)NC(=S)N/N=C/c1ccccn1
- GI50 [1]: < 0.01 µM (active)
- GI50 [2]: 0.223 µM (active)
- GI50 [3]: 3.61 µM (inactive)
- GI50 [4]: 3.28 µM (inactive)
- GI50 [5]: < 0.0164 µM (active)
- GI50 [6]: 6.84 µM (inactive)
- GI50 [7]: > 32.2 µM (inactive)
- GI50 [8]: < 0.01 µM (active)
- GI50 [9]: 14.1 µM (inactive)
- GI50 [10]: 2.04 µM (inactive)
- GI50 [11]: 0.724 µM (active)
- GI50 [12]: 0.357 µM (active)
- GI50 [13]: 0.259 µM (active)
- GI50 [14]: < 0.0155 µM (active)
- GI50 [15]: 0.361 µM (active)
- GI50 [16]: 0.612 µM (active)
- GI50 [17]: < 0.0106 µM (active)
- GI50 [18]: 2.13 µM (inactive)
- GI50 [19]: 0.0851 µM (active)
- GI50 [20]: < 0.01 µM (active)
- GI50 [21]: < 0.01 µM (active)
- GI50 [22]: 0.578 µM (active)
- GI50 [23]: 7.36 µM (inactive)
- GI50 [24]: 3.16 µM (inactive)
- GI50 [25]: < 0.01 µM (active)
- GI50 [26]: < 0.0113 µM (active)
- GI50 [27]: 2.65 µM (inactive)
- GI50 [28]: 0.0596 µM (active)
- GI50 [29]: 1.58 µM (inactive)
- GI50 [30]: < 0.0159 µM
- GI50 [31]: < 0.01 µM (active)
- GI50 [32]: 1 µM (active)
- GI50 [33]: 2.84 µM (inactive)
- GI50 [34]: 3.72 µM (inactive)
- GI50 [35]: < 0.0237 µM (active)
- GI50 [36]: 0.0343 µM (active)
- GI50 [37]: 18.3 µM (inactive)
- GI50 [38]: < 0.01 µM (active)
- GI50 [39]: 0.0545 µM (active)
- GI50 [40]: 0.396 µM (active)
- GI50 [41]: 1.96 µM (inactive)
- GI50 [42]: 0.863 µM (active)
- GI50 [43]: < 0.0452 µM (active)
- GI50 [44]: 2.73 µM (inactive)
- GI50 [45]: 0.968 µM (active)
- GI50 [46]: < 0.01 µM (active)
- GI50 [47]: > 100 µM (inactive)
- GI50 [48]: < 0.01 µM (active)
- GI50 [49]: 0.0281 µM (active)
- GI50 [50]: < 0.01 µM (active)
- GI50 [51]: < 0.0467 µM (active)
- GI50 [52]: < 0.0118 µM (active)
- GI50 [53]: 3.4 µM (inactive)
- GI50 [54]: 0.409 µM (active)
- GI50 [55]: 1.94 µM (inactive)

SMILES: CCN(CC)N1C(=O)[N-][N+](CC)(CC)C1=O
- GI50 [2]: > 100 µM (inactive)
- GI50 [3]: > 100 µM (inactive)
- GI50 [4]: > 100 µM (inactive)
- GI50 [5]: > 100 µM (inactive)
- GI50 [6]: > 100 µM (inactive)
- GI50 [7]: > 100 µM (inactive)
- GI50 [8]: > 100 µM (inactive)
- GI50 [9]: > 100 µM (inactive)
- GI50 [56]: > 100 µM (inactive)
- GI50 [10]: > 100 µM (inactive)
- GI50 [57]: > 100 µM (inactive)
- GI50 [11]: > 100 µM (inactive)
- GI50 [12]: > 100 µM (inactive)
- GI50 [13]: > 100 µM (inactive)
- GI50 [14]: > 100 µM (inactive)
- GI50 [15]: > 100 µM (inactive)
- GI50 [16]: > 100 µM (inactive)
- GI50 [17]: > 100 µM (inactive)
- GI50 [18]: > 100 µM (inactive)
- GI50 [19]: > 100 µM (inactive)
- GI50 [20]: > 100 µM (inactive)
- GI50 [21]: > 100 µM (inactive)
- GI50 [22]: > 100 µM (inactive)
- GI50 [23]: > 100 µM (inactive)
- GI50 [24]: > 100 µM (inactive)
- GI50 [25]: > 100 µM (inactive)
- GI50 [26]: > 100 µM (inactive)
- GI50 [27]: > 100 µM (inactive)
- GI50 [28]: > 100 µM (inactive)
- GI50 [29]: > 100 µM (inactive)
- GI50 [30]: > 100 µM
- GI50 [31]: 71.1 µM (inactive)
- GI50 [32]: > 100 µM (inactive)
- GI50 [33]: > 100 µM (inactive)
- GI50 [34]: > 100 µM (inactive)
- GI50 [35]: > 100 µM (inactive)
- GI50 [36]: > 100 µM (inactive)
- GI50 [37]: > 100 µM (inactive)
- GI50 [38]: > 100 µM (inactive)
- GI50 [58]: > 100 µM (inactive)
- GI50 [39]: > 100 µM (inactive)
- GI50 [40]: > 100 µM (inactive)
- GI50 [41]: > 100 µM (inactive)
- GI50 [42]: > 100 µM (inactive)
- GI50 [43]: > 100 µM (inactive)
- GI50 [44]: > 100 µM (inactive)
- GI50 [45]: > 100 µM (inactive)
- GI50 [46]: > 100 µM (inactive)
- GI50 [47]: > 100 µM (inactive)
- GI50 [48]: > 100 µM (inactive)
- GI50 [49]: > 100 µM (inactive)
- GI50 [52]: > 100 µM (inactive)
- GI50 [53]: > 100 µM (inactive)
- GI50 [54]: > 100 µM (inactive)
- GI50 [59]: > 100 µM (inactive)
- GI50 [55]: > 100 µM (inactive)

SMILES: COc1ccc(NC(=S)NNC(=O)c2cc(-c3ccccc3)nc3ccccc23)cc1
- GI50 [1]: 15.7 µM (inactive)
- GI50 [2]: 22.5 µM (inactive)
- GI50 [3]: 2.95 µM (inactive)
- GI50 [4]: 13.2 µM (inactive)
- GI50 [5]: 19.2 µM (inactive)
- GI50 [6]: 12.1 µM (inactive)
- GI50 [7]: 24 µM (inactive)
- GI50 [8]: 12.4 µM (inactive)
- GI50 [9]: 15.8 µM (inactive)
- GI50 [56]: 19.3 µM (inactive)
- GI50 [10]: 18.1 µM (inactive)
- GI50 [57]: 17.1 µM (inactive)
- GI50 [11]: 16 µM (inactive)
- GI50 [12]: 15.5 µM (inactive)
- GI50 [13]: 11.4 µM (inactive)
- GI50 [14]: 12 µM (inactive)
- GI50 [15]: 20.8 µM (inactive)
- GI50 [16]: 17.2 µM (inactive)
- GI50 [17]: 11.4 µM (inactive)
- GI50 [18]: 17.7 µM (inactive)
- GI50 [19]: 15.4 µM (inactive)
- GI50 [20]: 2.81 µM (inactive)
- GI50 [21]: 14.9 µM (inactive)
- GI50 [22]: 11.5 µM (inactive)
- GI50 [23]: 23.9 µM (inactive)
- GI50 [24]: 18.6 µM (inactive)
- GI50 [25]: 12.9 µM (inactive)
- GI50 [26]: 14.6 µM (inactive)
- GI50 [27]: 10.6 µM (inactive)
- GI50 [29]: 4.03 µM (inactive)
- GI50 [30]: 12.3 µM
- GI50 [31]: 31.8 µM (inactive)
- GI50 [32]: 20.1 µM (inactive)
- GI50 [33]: 3.5 µM (inactive)
- GI50 [34]: 11.2 µM (inactive)
- GI50 [35]: 22.1 µM (inactive)
- GI50 [36]: 12.3 µM (inactive)
- GI50 [37]: 14.1 µM (inactive)
- GI50 [38]: 19.7 µM (inactive)
- GI50 [58]: 13.6 µM (inactive)
- GI50 [39]: 17.9 µM (inactive)
- GI50 [40]: 15.1 µM (inactive)
- GI50 [41]: 0.479 µM (active)
- GI50 [42]: 26.1 µM (inactive)
- GI50 [43]: 19.9 µM (inactive)
- GI50 [44]: 14.3 µM (inactive)
- GI50 [45]: 16.1 µM (inactive)
- GI50 [47]: 16.1 µM (inactive)
- GI50 [48]: 0.568 µM (active)
- GI50 [49]: 26.5 µM (inactive)
- GI50 [50]: 13.9 µM (inactive)
- GI50 [51]: 18.4 µM (inactive)
- GI50 [52]: 23.4 µM (inactive)
- GI50 [53]: 10.4 µM (inactive)
- GI50 [54]: 11.4 µM (inactive)
- GI50 [55]: 16.1 µM (inactive)
